The structures appear in SMILES notation. Like-named read-outs stand apart in the source and are kept apart here.

What all share (assay): selectivity profiling in a panel of 340 wild-type kinases (Reaction Biology Europe)
Common to all, as to type: binding

Test [1] deals with T1, 340 wild-type kinases (Homo sapiens, UniProt O60566).
T1 construct: purchased Reaction Biology Europe

Test [2] deals with T2, 340 wild-type kinases (Homo sapiens, UniProt P08631).
T2 construct: purchased Reaction Biology Europe

Test [3] deals with T3, 340 wild-type kinases (Homo sapiens, UniProt P51956).
T3 construct: purchased Reaction Biology Europe
T3 sequence (P51956 1-506): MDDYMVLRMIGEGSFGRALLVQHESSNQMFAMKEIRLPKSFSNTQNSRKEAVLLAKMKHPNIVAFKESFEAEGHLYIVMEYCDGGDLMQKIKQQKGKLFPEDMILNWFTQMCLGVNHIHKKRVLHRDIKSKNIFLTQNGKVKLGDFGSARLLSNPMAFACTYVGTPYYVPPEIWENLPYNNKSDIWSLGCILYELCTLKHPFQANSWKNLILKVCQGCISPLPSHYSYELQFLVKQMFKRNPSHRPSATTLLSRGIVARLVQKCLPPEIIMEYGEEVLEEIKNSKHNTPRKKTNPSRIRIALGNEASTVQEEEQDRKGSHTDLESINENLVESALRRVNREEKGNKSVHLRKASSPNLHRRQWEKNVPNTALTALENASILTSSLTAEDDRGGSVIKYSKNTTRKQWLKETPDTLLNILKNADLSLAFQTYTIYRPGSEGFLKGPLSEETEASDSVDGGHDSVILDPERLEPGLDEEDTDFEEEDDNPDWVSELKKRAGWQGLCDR

Test [4] concerns the target T4, 340 wild-type kinases (Homo sapiens, UniProt Q12866).
T4 construct: purchased Reaction Biology Europe
T4 sequence (Q12866 21-999): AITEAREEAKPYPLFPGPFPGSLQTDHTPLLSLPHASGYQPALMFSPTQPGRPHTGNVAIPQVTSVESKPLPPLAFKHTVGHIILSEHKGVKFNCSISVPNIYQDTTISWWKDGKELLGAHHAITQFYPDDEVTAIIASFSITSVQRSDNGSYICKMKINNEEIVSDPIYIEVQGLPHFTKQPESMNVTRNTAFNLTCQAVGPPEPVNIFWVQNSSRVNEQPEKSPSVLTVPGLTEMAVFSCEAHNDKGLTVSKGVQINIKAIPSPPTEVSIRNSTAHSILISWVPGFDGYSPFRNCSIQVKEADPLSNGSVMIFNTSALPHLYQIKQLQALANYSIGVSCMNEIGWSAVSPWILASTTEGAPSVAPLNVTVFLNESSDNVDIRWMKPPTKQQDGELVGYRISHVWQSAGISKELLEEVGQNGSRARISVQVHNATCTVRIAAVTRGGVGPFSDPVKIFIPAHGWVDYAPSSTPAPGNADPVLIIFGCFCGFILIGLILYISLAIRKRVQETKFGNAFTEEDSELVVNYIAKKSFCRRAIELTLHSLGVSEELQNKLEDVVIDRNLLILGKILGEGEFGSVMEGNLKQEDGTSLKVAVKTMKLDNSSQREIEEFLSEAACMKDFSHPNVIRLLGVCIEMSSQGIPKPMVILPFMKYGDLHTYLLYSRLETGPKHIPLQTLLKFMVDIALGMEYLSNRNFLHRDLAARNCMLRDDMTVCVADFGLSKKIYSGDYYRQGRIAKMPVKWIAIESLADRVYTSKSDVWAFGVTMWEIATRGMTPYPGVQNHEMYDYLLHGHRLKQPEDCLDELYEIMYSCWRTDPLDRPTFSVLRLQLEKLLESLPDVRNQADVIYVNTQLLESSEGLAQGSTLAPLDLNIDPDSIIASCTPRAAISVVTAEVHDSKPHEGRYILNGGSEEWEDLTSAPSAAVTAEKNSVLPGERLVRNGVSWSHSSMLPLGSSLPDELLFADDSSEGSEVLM

The target of test [5] is T5, 340 wild-type kinases (Homo sapiens, UniProt Q8IYT8).
T5 construct: purchased Reaction Biology Europe
T5 sequence (Q8IYT8 1-1036): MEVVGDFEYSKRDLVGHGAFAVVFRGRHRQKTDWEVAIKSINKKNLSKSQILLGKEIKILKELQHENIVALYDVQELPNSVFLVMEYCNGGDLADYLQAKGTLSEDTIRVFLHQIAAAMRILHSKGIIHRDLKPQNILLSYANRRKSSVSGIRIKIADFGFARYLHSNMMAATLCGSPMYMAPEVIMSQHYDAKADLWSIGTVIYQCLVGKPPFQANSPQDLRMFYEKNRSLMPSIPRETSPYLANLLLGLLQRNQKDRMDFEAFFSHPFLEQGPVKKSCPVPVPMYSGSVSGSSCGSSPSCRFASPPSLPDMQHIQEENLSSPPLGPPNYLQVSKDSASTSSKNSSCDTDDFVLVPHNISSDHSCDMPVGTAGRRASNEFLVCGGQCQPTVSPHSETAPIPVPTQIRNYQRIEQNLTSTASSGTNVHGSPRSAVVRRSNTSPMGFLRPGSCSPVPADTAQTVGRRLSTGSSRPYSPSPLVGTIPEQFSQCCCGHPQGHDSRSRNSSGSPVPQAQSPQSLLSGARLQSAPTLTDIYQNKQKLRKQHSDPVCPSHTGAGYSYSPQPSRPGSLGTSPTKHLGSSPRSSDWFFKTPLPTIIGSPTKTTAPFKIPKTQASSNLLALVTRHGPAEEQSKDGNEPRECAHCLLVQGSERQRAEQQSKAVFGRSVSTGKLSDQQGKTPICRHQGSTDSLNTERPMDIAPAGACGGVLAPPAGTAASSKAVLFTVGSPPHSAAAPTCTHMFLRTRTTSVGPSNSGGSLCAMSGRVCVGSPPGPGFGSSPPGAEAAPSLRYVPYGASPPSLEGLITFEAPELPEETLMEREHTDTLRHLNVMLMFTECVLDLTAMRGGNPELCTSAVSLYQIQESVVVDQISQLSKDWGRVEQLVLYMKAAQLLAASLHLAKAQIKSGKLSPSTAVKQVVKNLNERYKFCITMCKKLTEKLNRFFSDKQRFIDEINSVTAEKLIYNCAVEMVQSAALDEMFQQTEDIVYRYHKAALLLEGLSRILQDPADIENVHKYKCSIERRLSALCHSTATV

T2 sequence (P08631 whole entry): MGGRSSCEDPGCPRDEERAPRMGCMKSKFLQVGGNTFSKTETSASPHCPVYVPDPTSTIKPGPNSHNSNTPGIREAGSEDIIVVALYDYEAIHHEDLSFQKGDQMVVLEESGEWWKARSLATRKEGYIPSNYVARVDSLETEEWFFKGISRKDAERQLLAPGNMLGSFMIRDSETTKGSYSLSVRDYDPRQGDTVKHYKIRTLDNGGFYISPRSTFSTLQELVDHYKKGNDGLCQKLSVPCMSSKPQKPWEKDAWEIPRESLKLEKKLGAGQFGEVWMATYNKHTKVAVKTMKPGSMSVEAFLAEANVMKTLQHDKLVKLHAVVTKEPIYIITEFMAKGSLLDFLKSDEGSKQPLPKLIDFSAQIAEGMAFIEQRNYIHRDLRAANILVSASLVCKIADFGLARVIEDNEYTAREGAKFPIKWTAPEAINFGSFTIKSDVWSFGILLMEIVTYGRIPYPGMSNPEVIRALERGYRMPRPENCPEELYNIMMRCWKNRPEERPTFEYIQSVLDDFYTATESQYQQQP
T1 sequence (O60566 whole entry): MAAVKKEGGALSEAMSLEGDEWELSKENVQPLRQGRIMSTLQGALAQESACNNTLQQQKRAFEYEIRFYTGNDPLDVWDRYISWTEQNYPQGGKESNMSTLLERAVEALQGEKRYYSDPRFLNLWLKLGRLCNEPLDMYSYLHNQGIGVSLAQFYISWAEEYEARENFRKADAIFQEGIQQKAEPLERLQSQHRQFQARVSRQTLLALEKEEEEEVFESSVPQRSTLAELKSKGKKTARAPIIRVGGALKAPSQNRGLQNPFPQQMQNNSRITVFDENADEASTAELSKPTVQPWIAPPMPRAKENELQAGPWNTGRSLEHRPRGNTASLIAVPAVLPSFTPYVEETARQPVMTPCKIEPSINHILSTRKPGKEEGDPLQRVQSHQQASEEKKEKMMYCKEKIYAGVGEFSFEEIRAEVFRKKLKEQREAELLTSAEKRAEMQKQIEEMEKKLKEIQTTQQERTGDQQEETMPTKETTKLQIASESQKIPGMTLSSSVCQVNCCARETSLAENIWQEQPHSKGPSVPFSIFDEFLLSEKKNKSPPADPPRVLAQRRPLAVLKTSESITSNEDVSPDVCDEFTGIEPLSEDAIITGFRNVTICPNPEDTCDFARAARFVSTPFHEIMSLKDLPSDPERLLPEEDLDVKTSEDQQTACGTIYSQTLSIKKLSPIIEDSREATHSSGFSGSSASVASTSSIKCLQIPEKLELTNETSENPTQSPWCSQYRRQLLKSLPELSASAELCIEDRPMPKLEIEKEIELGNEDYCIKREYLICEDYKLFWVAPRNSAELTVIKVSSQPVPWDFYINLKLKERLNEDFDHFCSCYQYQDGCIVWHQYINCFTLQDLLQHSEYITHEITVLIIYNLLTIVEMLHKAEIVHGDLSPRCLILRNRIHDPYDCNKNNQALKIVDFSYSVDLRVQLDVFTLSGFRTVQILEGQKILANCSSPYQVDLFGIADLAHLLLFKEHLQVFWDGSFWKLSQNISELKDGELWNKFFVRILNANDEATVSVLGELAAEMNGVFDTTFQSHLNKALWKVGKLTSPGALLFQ

As for `CNC(=O)c1ccc2c(c1)C(=O)c1ccc(Nc3ccc(F)c(NC(=O)C4CC4)c3)cc1CC2` [Compound 2015], the remaining activity at 0.2 µM worked out at 94.1% in test [1] (0.2 µM 2015, read-out: BUB1B residual activity); 94.1% in test [1] (BUB1B, 0.2 µM, read-out: residual activity); 124% in test [2] (0.2 µM 2015, read-out: HCK residual activity); 124% in test [2] (HCK, 0.2 µM, read-out: residual activity); 98.3% in test [3] (0.2 µM 2015, read-out: NEK3 residual activity); 98.3% in test [3] (NEK3, 0.2 µM, read-out: residual activity). The remaining activity at 0.2 µM was determined as 88.3% in test [4] (0.2 µM 2015, read-out: MERTK residual activity); 88.3% in test [4] (MERTK, 0.2 µM, read-out: residual activity); 105% in test [5] (0.2 µM 2015, read-out: ULK2 residual activity); 105% in test [5] (ULK2, 0.2 µM, read-out: residual activity). The remaining activity at 1 µM was 95.8% in test [1] (1 µM 2015, read-out: BUB1B residual activity); 95.8% in test [1] (BUB1B, 1 µM, read-out: residual activity); 109% in test [2] (1 µM 2015, read-out: HCK residual activity); 109% in test [2] (HCK, 1 µM, read-out: residual activity); 88.8% in test [3] (1 µM 2015, read-out: NEK3 residual activity); 88.8% in test [3] (NEK3, 1 µM, read-out: residual activity). In addition, the remaining activity at 1 µM in test [4] (1 µM 2015, read-out: MERTK residual activity) was 97%; in test [4] (MERTK, 1 µM, read-out: residual activity), 97%; in test [5] (1 µM 2015, read-out: ULK2 residual activity) it was 87.8%; in test [5] (ULK2, 1 µM, read-out: residual activity), 87.8%.

The values are drawn from publication PMC11864979, “First-in-class ultralong-target-residence-time p38α inhibitors as a mitosis-targeted therapy for colorectal cancer” (Nature Cancer, 2025).
